According to PMC9635925, “Biological screening of a unique drug library targeting MRGPRX2” (Frontiers in Immunology, 2022):
Positions count from the first letter of the chain named. Where a name gives a salt, the structure may show the parent alone.

Tests used:
[1] = biological target: T1, MRGPRX2-MUT (MRGPRX2 N62S mutation) (Homo sapiens, UniProt Q96LB1, N62S); assay: Primary HTS, Ca2+ mobilization (fluorescence ratio, B-score) in HEK293-Gα15 cells stably expressing the MRGPRX2 N62S mutation; assay type: cell-based; details: for B-scores (MUT): 10 μM compound, MRGPRX2-MUT (N62S) cells; for Change of B-scores (%): 10 μM
T1 construct: expressed in transfected cells
T1 sequence (Q96LB1 1-330 N62S): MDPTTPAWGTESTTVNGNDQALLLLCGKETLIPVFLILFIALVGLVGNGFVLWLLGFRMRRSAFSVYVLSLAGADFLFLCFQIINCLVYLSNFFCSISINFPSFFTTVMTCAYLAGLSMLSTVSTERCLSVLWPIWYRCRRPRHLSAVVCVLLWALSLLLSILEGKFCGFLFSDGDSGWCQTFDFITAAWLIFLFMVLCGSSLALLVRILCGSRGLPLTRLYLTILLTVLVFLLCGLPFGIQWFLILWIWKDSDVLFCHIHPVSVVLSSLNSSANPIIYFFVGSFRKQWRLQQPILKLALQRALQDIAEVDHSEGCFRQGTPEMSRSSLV
Procedure: (§1) We performed an experimental HTS on the Johns Hopkins Drug Library, which includes 1,811 (57%) FDA-approved drugs among 3,456 total compounds (28% of all known drugs worldwide) ([15]). We performed the HTS at the Johns Hopkins University ChemBioCORE Facility and employed HEK293-Gα15 cell lines that stably expressed MRGPRX2 protein.
(§2) We utilized 10 μM compounds (each compound was tested in triplicate) and calculated the compound effect using the signal-to-background fluorescence ratio (see Supplementary Methods).
(§3) In the HTS, we determined MRGPRX2 activation by a Ca^2+ mobilization assay that recorded a fluorescence change by utilizing a Functional Drug Screening System (FDSS 6000; Hamamatsu); we evaluated the compound effect using the calculated fluorescence ratio. We further applied the B-score normalization, which provided robust corrections for variation in fluorescence ratio ([22]).
(§4) We performed an experimental high-throughput screening (HTS) on the Johns Hopkins Drug Library (JHDL), which includes 1,811 (57%) FDA-approved drugs among 3,456 total compounds (28% of all known drugs worldwide). The remaining compounds in JHDL are catalogued in one or more of the resources below: British Approved Names (BAN); Dénominations Communes Françaises (DCF); International Nonproprietary Names (INN); Japanese Adopted Names (JAN); MI (Merck Index); National Formulary drug name (NF); and United States Accepted Names (USAN). The JHU drug library is stocked in 96 well plates at 10 mM in 100% DMSO and stored at -80 °C. We used a final concentration of 10 uM for each compound and DMSO concentration of 0.1% (tested in triplicate). […] We evaluated compound effect using the calculated fluorescence ratio. We further calculated B-scores, which are a relative potency score similar to Z scores in that they are the ratio of an adjusted raw value in the numerator to a measure of variability in the denominator.

[2] = biological target: T2, MRGPRX2-WT (wild-type MRGPRX2 receptor) (Homo sapiens, UniProt Q96LB1); assay: Primary HTS, Ca2+ mobilization (fluorescence ratio, B-score) in HEK293-Gα15 cells stably expressing wild-type MRGPRX2; assay type: cell-based; details: 10 μM compound
T2 construct: expressed in transfected cells
T2 sequence (Q96LB1 1-330): T1 sequence (Q96LB1 1-330 N62S) with S62N
Procedure: as §1, §2, §3, §4

[3] = MRGPRX2-MUT in comparison to MRGPRX2-WT cells, Supplementary Table 1
[4] = MRGPRX2-MUT in comparison to MRGPRX2-WT cells, Table 1
[5] = MRGPRX2-MUT versus MRGPRX2-WT cells, Supplementary Table 2

Row | SMILES | B-scores (MUT) ([1]; Table 1) | Change of B-scores (%) [1, 3] [%] | Change of B-scores (%) [1, 4] [%] | B-scores (WT) ([2]; Supplementary Table 1) | B-scores (WT) ([2]; Table 1) | B-scores (MUT) ([1]; Supplementary Table 1) | B-scores (MUT) ([1]; Supplementary Table 2) | Change of B-scores (%) [1, 5] [%] | B-scores (WT) ([2]; Supplementary Table 2) | Change of B-scores (%) ([1]; MRGPRX2-MUT in comparison to MRGPRX2-WT cells, Supplementary Table 1, listed as Isoprenaline hydrochloride) | B-scores (WT) ([2]; Supplementary Table 1, listed as Isoprenaline hydrochloride)
1 | CN(C)CCN1C(=O)c2ccccc2N(C)c2ccccc21 [Dibenzepin] | -1.62 | -106.37 | -106.37 | 25.48 | 25.48 |  |  |  |  |  | 
2 | CN1CCN(c2cc3c(cc2F)c(=O)c(C(=O)O)cn3-c2ccc(F)cc2)CC1 [Difloxacin Hydrochloride] | -1.54 | -103.45 | -103.45 | 44.81 | 44.81 | 1.54 | -1.54 | -103.45 | 44.81 |  | 
3 | COc1ccc([C@@H]2Sc3ccccc3N(CCN(C)C)C(=O)[C@@H]2OC(C)=O)cc1 [Diltiazem Hydrochloride] |  | -104.18 |  | 22.99 |  |  |  |  |  |  | 
4 | CCCCC[C@H](O)/C=C/[C@H]1[C@H](O)CC(=O)[C@@H]1C/C=C\CCCC(=O)O [Dinoprostone (Prostaglandin E2)] |  | -57.38 |  | 40.59 |  | 17.30 |  |  |  |  | 
5 | CN(C)CCOC(c1ccccc1)c1ccccc1 [Diphenhydramine Hydrochloride] |  |  |  |  |  |  | 0.66 | -93.55 | 10.26 |  | 
6 | CN(C)CCC=C1c2ccccc2COc2ccccc21 [Doxepin Hydrochloride] |  |  |  |  |  |  | 1.85 | -85.71 | 12.95 |  | 
7 | CNCC[C@H](Oc1cccc2ccccc12)c1cccs1 [Duloxetine Hydrochloride] |  | -98.55 |  | 44.22 |  | 0.64 |  |  |  |  | 
8 | CNC[C@H](O)c1ccc(O)c(O)c1 [Epinephrine Bitartrate] |  | -54.24 |  | 25.60 |  | 11.72 | 11.72 | -54.24 | 25.6 |  | 
9 | CNC[C@H](O)c1ccc(O)c(O)c1 [Epinephrine] |  |  |  |  |  |  | 8.28 | -52.73 | 17.52 |  | 
10 | CCCCC[C@H](O)/C=C/[C@@H]1[C@H]2C/C(=C/CCCC(=O)O)O[C@H]2C[C@H]1O [Epoprostenol] |  | -60.51 |  | 27.44 |  | 10.83 |  |  |  |  | 
11 | CC(Cc1ccc(O)cc1)NCC(O)c1cc(O)cc(O)c1 (stereo not shown) [Fenoterol Hydrobromide] |  | -100.16 |  | 20.31 |  |  | -0.03 | -100.16 | 20.31 |  | 
12 | CC(Cc1ccc(O)cc1)NCC(O)c1cc(O)cc(O)c1 (stereo not shown) [Fenoterol] |  | -41.33 |  | 23.48 |  | 13.78 | 13.78 | -41.33 | 23.48 |  | 
13 | CNCCC(Oc1ccc(C(F)(F)F)cc1)c1ccccc1 (stereo not shown) [Fluoxetine] | 7.14 | -80.32 | -80.32 | 36.30 | 36.30 | 7.14 |  |  |  |  | 
14 | COc1ccc2c3c1O[C@H]1C[C@@H](O)C=C[C@@]31CCN(C)C2 [Galantamine Hydrobromide] |  | -93.34 |  | 19.90 |  | 1.33 |  |  |  |  | 
15 | COc1ccc2c3c1O[C@H]1C[C@@H](O)C=C[C@@]31CCN(C)C2 [Galantamine] |  | -96.90 |  | 40.50 |  | 1.25 |  |  |  |  | 
16 | COc1ccc(CCN(C)CCCC(C#N)(c2cc(OC)c(OC)c(OC)c2)C(C)C)cc1OC (stereo not shown) [Gallopamil] |  |  |  |  |  |  | 0.2 | -97.19 | 7.16 |  | 
17 | CN1[C@@H]2CC(OC(=O)[C@H](CO)c3ccccc3)C[C@H]1[C@@H]1O[C@@H]12.Cl (stereo partly shown) [Hyoscine hydrochloride] |  |  |  |  |  |  | 0.57 | -94.9 | 11.2 |  | 
18 | CN1[C@@H]2CC[C@H]1CC(OC(=O)[C@H](CO)c1ccccc1)C2.Cl (stereo partly shown) [Hyoscyamine Hydrochloride] |  |  |  |  |  |  | 0.69 | -94.01 | 11.54 |  | 
19 | CN1[C@@H]2CC[C@H]1C[C@@H](OC(=O)[C@H](CO)c1ccccc1)C2 [Hyoscyamine] |  |  |  |  |  |  | 0.65 | -96.31 | 17.72 |  | 
20 | CC(=O)[C@]1(O)Cc2c(O)c3c(c(O)c2[C@@H](O[C@H]2C[C@H](N)[C@H](O)[C@H](C)O2)C1)C(=O)c1ccccc1C3=O [Idarubicin hydrochloride] |  |  |  |  |  |  | 39.57 | 241.86 | 11.57 |  | 
21 | CN(C)CCCN1c2ccccc2CCc2ccccc21 [Imipramine Hydrochloride] | 16.90 | -47.47 | -47.47 | 32.17 | 32.17 | 16.90 | 16.9 | -47.47 | 32.17 |  | 
22 | CC(C)CCCC(C)NC(C)C (stereo not shown) [Iproheptine] |  | -61.42 |  | 26.61 |  | 10.27 |  |  |  |  | 
23 | CCC(NC(C)C)C(O)c1ccc(O)c(O)c1 (stereo not shown) [Isoetharine Mesylate] |  | -97.97 |  | 29.54 |  | 0.60 |  |  |  |  | 
24 | CC(C)NCC(O)c1ccc(O)c(O)c1 (stereo not shown) [Isoproterenol Hydrochloride] |  | -100.26 |  | 20.95 |  |  | -0.05 | -100.26 | 20.95 | -100.25 | 21.82
